How the values were obtained:
CKAP4_127–360 = molecular target: T1, CKAP4_127–360 (Homo sapiens, UniProt Q07065); experiment: SPR detection of as-APF in spiked urine, CKAP4_127–360 biosensor; format: binding; details: immobilized CKAP4_127–360
T1 construct: amino acids 106–602, 127–360, 361–524, and 525–602 regions were generated by PCR and subcloned into the pET-15b bacterial expression vector; His-tag; made in house; host or cells: E. coli BL21(DE3)pLysS
T1 sequence (Q07065 127-360): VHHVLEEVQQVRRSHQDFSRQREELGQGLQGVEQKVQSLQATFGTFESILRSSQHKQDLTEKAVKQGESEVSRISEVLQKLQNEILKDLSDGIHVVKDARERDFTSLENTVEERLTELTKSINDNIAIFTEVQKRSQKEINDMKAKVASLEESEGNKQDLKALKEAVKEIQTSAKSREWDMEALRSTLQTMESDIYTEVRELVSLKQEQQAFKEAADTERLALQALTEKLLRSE
Experimental: For experiments using spiked urine, CKAP4_127–360 was immobilized on the Fc2 channel of a CM5 chip by amine-coupling, as the ligand. The Fc1 channel was similarly treated but without CKAP4, to serve as reference. A control urine sample from a healthy donor was mixed 1:1 with as-APF stock (200 μM) solution. Various dilutions of this mixture in SPR running buffer were prepared to yield desired as-APF final concentrations, and then injected over the sensor chip surface. Corresponding dilutions of unspiked control urine were run under identical conditions to account for background interference from urinary constituents. To ensure identical running conditions, all dilutions were adjusted to 1X SPR running buffer from a 10X stock. Sensorgrams were corrected for background interference from urinary constituents by subtracting the RU traces resulting from unspiked urine injections from the RU traces resulting from the corresponding urine dilutions with spiked as-APF, and subsequently replotted after subtracting the RU trace from the reference (Fc1) channel.
In order to determine whether this SPR-based assay employing CKAP4 as a biosensor could be used to detect APF in urine, we used urine from healthy donors spiked with as-APF as a mimetic for IC patient urine. CKAP4_127–360 was employed as the biosensing ligand, since it bound as-APF with the highest affinity. […]

full-length CKAP4 = experiment: SPR binding to full-length His-tagged CKAP4
Experimental: FL-CKAP4 was expressed in HEK 293 T cells (ATCC) and similarly purified by IMAC. Briefly, HEK 293 T cells were transfected with pcDNA3.1/V5-His TOPO vector (Life Technologies) expressing FL-CKAP4 using X-tremeGENE 9 transfection reagent (Roche) according to manufacturer’s protocol. Cells were harvested after transient expression (24 h) and held at −80 °C before proceeding to purification. Cell lysate was prepared in PBS buffer containing 10 mM CHAPS, 20 mM imidazole and EDTA-free protease inhibitor cocktail and sonicated before proceeding to protein purification, as described above. All purified proteins were quantitated by the BCA method according to the manufacturer’s protocol using BSA as the standard (ThermoScientific). Because of the varied amino acid compositions of the purified recombinant proteins, the UV (λ280nm) absorbance method was also used for reference.
All SPR experiments were performed on a Biacore X-100 instrument (GE Healthcare) with the chip surface at 25 °C using PBS containing 0.01% Tween-20 as running buffer. CKAP4 recombinant proteins were immobilized individually either by Ni^2+/nitrilotriacetic acid (NTA) chelation on Sensor Chip NTA or by amine-coupling on Sensor Chip CM5, on the Fc2 channel. […] The data were analyzed using Biacore Evaluation software V2.0. […]

detection in normal urine (CKAP4_127–360): in a dose-dependent manner
binding (full-length CKAP4; CKAP4FL immobilized via His-tag on NTA chip): did not generate sufficient binding
Substance: Neu5Acα2 − 3Galβ1 − 3GalNAcα-O-TVPAAVVVA [APF]
binding activity (full-length CKAP4; full-length His-tagged CKAP4 purified from mammalian cells): did not detect appreciable binding activity
